The record followed here is patent publication US10653651B2, “Kit for treating cancer with low molecular weight components of aurin tricarboxylic acid complex” (Aurin Biotech Inc., priority 2014, dated 2020).

What all share (format): cell-based, human
The test system of one test is BT 474 cells. The test is described as follows: Lactic dehydrogenase release from BT 474 cells. Particulars: n=4, read-out: IC50, lactate dehydrogenase release from BT 474 cells. The method, then: Experiment 4 was designed to confirm apoptotic cell death of U251 cells induced by ATA, AQA, AHA, and ATAC by measuring release of lactic dehydrogenase into the cell medium. For serum lactate dehydrogenase determination, reaction supernatants ([…]) were pipetted into the wells of 96-well plates, followed by the addition of […] lactate solution (36 mg/mL in PBS) and […] INT (iodonitrotetrazolium chloride, 2-(4-iodophenyl)-3-(4-nitrophenyl)-5-phenyl-2H-tetrazolium chloride) solution (2 mg/mL in PBS). The enzymatic reaction was started by addition of […] of NAD^+/diaphorase solution (3 mg/mL NAD^+; 2.3 mg solid/mL diaphorase). After 1 h, optical densities were measured with a microplate reader using a 490 nm filter. The amount of LDH released was expressed as a percentage of the value obtained in comparative cells where cells were 100% lysed by 1% Triton X-100.
Experiment 14 was designed to determine if apoptotic cell death of BT 474 cells was induced by ATA, AQA, AHA, and ATAC as determined by the release of lactic dehydrogenase into the cell medium. The protocol was identical to that used in Experiment 5(d) except that BT 474 cells were used.

For test [1], the system named is VEGF. The test is described as follows: Western blot of VEGF expression and release by U251 cells. Conditions: 10 μM, 1 day; for expression of vascular endothelial growth factor (VEGF) in U251 cells: cell extract; for release of VEGF into the extracellular milieu by U251 cells: supernatant. The method, then: (§1) Experiment 2 was designed to determine the effect of ATA, AQA, and AHA on the expression and release of Factor H and VEGF by U251 cells. Cells were grown in DMEM for 24 h at 37° C., after which ATA, AQA, or AHA was added to the medium at a final concentration of 10 μM and incubation carried out for a further 24 h. The medium was drawn off, and the cells washed with PBS. Lysis buffer was then added to the cells. Forty microliters of the cell lysate, or the supernatant media, were loaded onto 12% polyacrylamide gels and separated under non-reducing conditions (70 V, 3-6 h). Following SDS-PAGE, proteins were transferred to a PVDF membrane (Bio-RadTM, CA) at 30 mA for 2 h. The membranes were blocked with 5% milk in PBS-T (80 mM Na2HPO4, 20 mM NaH2PO4, 100 mM NaCl, 0.1% Tween 20, pH 7.4) for 1 h, and incubated overnight at 4° C. with primary antibodies for Factor H (CytotechTM, goat 1/1000) and for VEGF (MilliporeTM, rabbit 1/2000). The membranes were then washed 3 times with PBST. They were then treated with an appropriate horseradish peroxidase (HRP)-conjugated secondary antibody for 3 h at room temperature. The secondary antibodies were anti-rabbit IgG (P0448, DAKOTM, Mississauga, Ontario, CA, 1/2,000) and anti-goat IgG (A[…], MilliporeTM, Billerica, Ma, 1/3,000). The bands were visualized with an enhanced chemiluminescence system and exposure to photographic film (Hyperfilm ECLTM, AmershamTM Pharmacia Biotech, Little Chalfont, UK). For reprobing of membranes with an alternative antibody, the membranes were treated with 10 mL of stripping buffer (3 mL of 1 M Tris-HCl pH 6.7, 10 mL of 10% SDS, 347 μL of 14 M mercaptoethanol, and 36.5 mL deionized water) at 60° C. for 1 h. The membrane was then placed on a shaking incubator for 30 min to clear it of all bound antibodies. The stripped membrane was then treated with a different primary antibody as previously described.
A general note: In western blotting, separated proteins are transferred to a membrane and probed.

The subject of a further test is Factor H. Put plainly: Western blot of Factor H expression in U251 cells. Conditions: 10 μM, 1 day, cell extract. Here is the method: as §1, with “The bands were visualized with an enhanced chemiluminescence system and exposure to photographic film (Hyperfilm ECLTM, AmershamTM Pharmacia Biotech, Little Chalfont, UK). For reprobing of membranes with an alternative antibody, the membranes were treated with 10 mL of stripping buffer (3 mL of 1 M Tris-HCl pH 6.7, 10 mL of 10% SDS, 347 μL of 14 M mercaptoethanol, and 36.5 mL deionized water) at 60° C. for 1 h. The membrane was then placed on a shaking incubator for 30 min to clear it of all bound antibodies. The stripped membrane was then treated with a different primary antibody as previously described.” left out

A further test concerns U251 cells. The test is described as follows: DNA laddering (apoptosis) in U251 cells. Particulars: 10 μM, 1 day, agarose gel. Here is the method:
(§2) For determination of DNA laddering, which is indicative of DNA disintegration, cells were precipitated by centrifugation, washed, and lysed with […] Tris-HCl, 5 mM EDTA, and 3% Triton-X-100. The lysates were incubated at 37° C. for 1 h and then centrifuged at 12,000g for 10 min. They were treated with phenol/chloroform/isoamylalcohol (25:24:1) and chloroform/isoamylalcohol (24:1) twice each, and precipitated with 0.6 volume isopropyl alcohol and 0.1 volume 3 M sodium actate at −20° C. for 30 min. The precipitates were centrifuged at 12,000 g for 20 min, washed with 70% ethanol and dissolved with TE buffer containing 2 μg/mL bovine RNase. DNAs were electrophoresed in 10 μg/mL ethidium bromide containing 2% w/v agarose gel.

In the next test the test system is BxPC-3 cells. The test is described as follows: DNA laddering (apoptosis) in BxPC-3 cells. Conditions: 10 μM, 1 day, agarose gel. Here is the method: as §2
Test [2] relates to VEGF. Put plainly: Western blot of VEGF expression and release by A549 cells. Particulars: 10 μM, 1 day; for expression of vascular endothelial growth factor (VEGF) in A549 cells: cell extract; for release of VEGF into the extracellular milieu by A549 cells: supernatant. Here is the method: Experiment 2 was designed to determine the effect of ATA, AQA, and AHA on the expression and release of Factor H and VEGF by U251 cells. Cells were grown in DMEM for 24 h at 37° C., after which ATA, AQA, or AHA was added to the medium at a final concentration of 10 μM and incubation carried out for a further 24 h. The medium was drawn off, and the cells washed with PBS. Lysis buffer was then added to the cells. Forty microliters of the cell lysate, or the supernatant media, were loaded onto 12% polyacrylamide gels and separated under non-reducing conditions (70 V, 3-6 h). Following SDS-PAGE, proteins were transferred to a PVDF membrane (Bio-Rad™, CA) at 30 mA for 2 h. The membranes were blocked with 5% milk in PBS-T (80 mM Na2HPO4, 20 mM NaH2PO4, 100 mM NaCl, 0.1% Tween 20, pH 7.4) for 1 h, and incubated overnight at 4° C. with primary antibodies for Factor H (Cytotech™, goat 1/1000) and for VEGF (Millipore™, rabbit 1/2000). The membranes were then washed 3 times with PBST. They were then treated with an appropriate horseradish peroxidase (HRP)-conjugated secondary antibody for 3 h at room temperature. The secondary antibodies were anti-rabbit IgG (P0448, DAKO™, Mississauga, Ontario, CA, 1/2,000) and anti-goat IgG (AP106P, Millipore™, Billerica, Ma, 1/3,000). The bands were visualized with an enhanced chemiluminescence system and exposure to photographic film (Hyperfilm ECL™, Amersham™ Pharmacia Biotech, Little Chalfont, UK). For reprobing of membranes with an alternative antibody, the membranes were treated with 10 mL of stripping buffer (3 mL of 1 M Tris-HCl pH 6.7, 10 mL of 10% SDS, 347 μL of 14 M mercaptoethanol, and 36.5 mL deionized water) at 60° C. for 1 h. The membrane was then placed on a shaking incubator for 30 min to clear it of all bound antibodies. The stripped membrane was then treated with a different primary antibody as previously described.
Experiment 6 was designed to determine the effect of ATA, AQA, and AHA on the expression and release of Factor H and VEGF by BxPC-3 cells.
Experiment 10 was designed to determine the effect of ATA, AQA, and AHA on the expression and release of Factor H and VEGF by A549 cells. The protocol was identical to that used in Experiment 6 except A549 cells were used.

pIC50: −log10 of the molar value. Where two headings read alike, the source gives them in different places.

Take `O=C(O)C1=CC(=C(c2ccc(O)c(C(=O)O)c2)c2ccc(O)c(C(=O)O)c2)C=CC1=O` [ATA, aurin tricarboxylic acid]: the pIC50 with BT 474 cells (Homo sapiens) is 5.32.

aurin hexacarboxylic acid [AHA]: in the test on VEGF [1], the “expression of vascular endothelial growth factor (VEGF) in U251 cells” value was “reducing expression” and the “release of VEGF into the extracellular milieu by U251 cells” value was “reducing release”. The “expression of Factor H in U251 cells” value in the test on Factor H is recorded as “reducing expression”. The “DNA fragmentation (180 bp laddering) in U251 cells” value in the test with U251 cells is “induced DNA fragmentation”. Also, in the test on BxPC-3 cells, the “DNA fragmentation (180 bp laddering) in BxPC-3 cells” value is “induced DNA fragmentation”. In addition, in the test with VEGF [2], the “expression of vascular endothelial growth factor (VEGF) in A549 cells” value is “reduced expression” and the “release of VEGF into the extracellular milieu by A549 cells” value is listed as “reducing release”. Also, in the test with BT 474 cells, the pIC50 was 5.31.

On to aurin quadracarboxylic acid [AQA], for which, in the test with VEGF [1], the “expression of vascular endothelial growth factor (VEGF) in U251 cells” value is on record as “reducing expression” and the “release of VEGF into the extracellular milieu by U251 cells” value was “reducing release”. Further, in the test on Factor H, the “expression of Factor H in U251 cells” value is listed as “reducing expression”. Moreover, the “DNA fragmentation (180 bp laddering) in U251 cells” value in the test with U251 cells is listed as “induced DNA fragmentation”. Moreover, the “DNA fragmentation (180 bp laddering) in BxPC-3 cells” value in the test on BxPC-3 cells is given as “induced DNA fragmentation”. In the test on VEGF [2], the “expression of vascular endothelial growth factor (VEGF) in A549 cells” value was “reduced expression” and the “release of VEGF into the extracellular milieu by A549 cells” value is “reducing release”. In the test on BT 474 cells, the negative-log IC50 (pIC50) was 5.33.

One may read the pIC50 as −log10 of the IC50, conventionally taken in molar units.
